# Experimental data from the supplement of paper PMC10307832.
# Compound: C[C@]1(c2nc3c(C(N)=O)cccc3[nH]2)CCCN1 [Veliparib] + CS(=O)(=O)CCNCc1ccc(-c2ccc3ncnc(Nc4ccc(OCc5cccc(F)c5)c(Cl)c4)c3c2)o1 [Lapatinib] (partner 2 µM)
# Test: relative viability (nuclei count vs DMSO), 5 days (fraction); higher = more cells survive
# Details: first compound 0.02 µM
# Procedure, shortened: (§1)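 Lung cancer cell lines were pin-tool dosed in 1536-well plates on the day after seeding, with either a lone drug or a fixed anchor-drug dose plus five library-drug doses (not always all listed) in √10 steps. Nuclei were counted on 4× images after 5 days. Relative viability is the ratio of treated-well to vehicle-well nuclei counts, with each value a median of duplicate plates.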
row,Cell Line,relative viability
1,LU99A,1.03
2,NCI-H1975,0.843
3,H3255,0.227
4,NCI-H2023,0.428
5,SK-LU-1,0.868
6,NCI-H1734,1.16
7,NCI-H1437,0.519
8,NCI-H596,1.14

# Same assay, conditions: first compound 0.06325 µM
row,Cell Line,relative viability
1,LU99A,0.926
2,NCI-H1975,0.765
3,H3255,0.209
4,NCI-H2023,0.759
5,NCI-H2405,0.941
6,SK-LU-1,0.835
7,NCI-H1734,0.982
8,NCI-H1437,0.794
9,ABC-1,1.17
10,NCI-H596,0.902

# Same assay, conditions: first compound 0.2 µM
row,Cell Line,relative viability
1,LU99A,0.585
2,NCI-H1975,0.831
3,H3255,0.27
4,NCI-H2023,0.743
5,NCI-H2405,1.09
6,SK-LU-1,0.966
7,NCI-H1734,0.933
8,NCI-H1437,0.72
9,ABC-1,1.18
10,NCI-H596,1.01

# Same assay, conditions: first compound 0.6325 µM
row,Cell Line,relative viability
1,LU99A,0.859
2,NCI-H1975,0.873
3,H3255,0.289
4,NCI-H2023,0.745
5,NCI-H2405,1.14
6,SK-LU-1,0.823
7,NCI-H1734,0.981
8,NCI-H1437,0.78
9,ABC-1,0.878
10,NCI-H596,1.19

# Same assay, conditions: first compound 2 µM
row,Cell Line,relative viability
1,LU99A,0.87
2,NCI-H1975,0.911
3,H3255,0.261
4,NCI-H2023,0.862
5,NCI-H2405,1.26
6,SK-LU-1,1.02
7,NCI-H1734,1.12
8,NCI-H1437,0.759
9,ABC-1,1.1
10,NCI-H596,1.01

# Compound: COC1=CC=C(C=C1)CN2C=CC3=C2C=C(C=C3)C(=O)NO + CS(=O)(=O)N1CCN(Cc2cc3nc(-c4cccc5[nH]ncc45)nc(N4CCOCC4)c3s2)CC1 [Pictilisib] (partner 1 µM)
# Test: as above
# Details: first compound 0.08 µM
# Procedure, shortened: as §1
row,Cell Line,relative viability
1,NCI-H1975,0.304
2,H3255,0.428
3,NCI-H2023,0.105
4,NCI-H2405,0.316
5,SK-LU-1,0.468
6,NCI-H1437,0.47
7,NCI-H596,0.349
8,LCLC-103H,0.526
9,NCI-H441,0.344

# Same assay, conditions: first compound 0.253 µM
row,Cell Line,relative viability
1,LU99A,0.338
2,NCI-H1975,0.297
3,H3255,0.411
4,NCI-H2023,0.239
5,NCI-H2405,0.378
6,SK-LU-1,0.586
7,NCI-H1734,0.487
8,NCI-H1437,0.449
9,ABC-1,0.761
10,NCI-H596,0.408
11,LCLC-103H,0.621
12,ChaGo-K-1,0.655
13,NCI-H441,0.613

# Same assay, conditions: first compound 0.8 µM
row,Cell Line,relative viability
1,LU99A,0.355
2,NCI-H1975,0.281
3,H3255,0.416
4,NCI-H2023,0.227
5,NCI-H2405,0.532
6,SK-LU-1,0.613
7,NCI-H1734,0.437
8,NCI-H1437,0.473
9,ABC-1,0.78
10,NCI-H596,0.411
11,LCLC-103H,0.586
12,ChaGo-K-1,0.801
13,NCI-H441,0.548

# Same assay, conditions: first compound 2.53 µM
row,Cell Line,relative viability
1,LU99A,0.295
2,NCI-H1975,0.299
3,H3255,0.436
4,NCI-H2023,0.236
5,NCI-H2405,0.405
6,SK-LU-1,0.517
7,NCI-H1734,0.384
8,NCI-H1437,0.481
9,ABC-1,0.724
10,NCI-H596,0.468
11,LCLC-103H,0.648
12,ChaGo-K-1,0.706
13,NCI-H441,0.572

# Same assay, conditions: first compound 8 µM
row,Cell Line,relative viability
1,LU99A,0.283
2,NCI-H1975,0.252
3,H3255,0.467
4,NCI-H2023,0.202
5,NCI-H2405,0.331
6,SK-LU-1,0.505
7,NCI-H1734,0.416
8,NCI-H1437,0.412
9,ABC-1,0.662
10,NCI-H596,0.409
11,LCLC-103H,0.532
12,ChaGo-K-1,0.462
13,NCI-H441,0.438

# Compound: COC1=CC=C(C=C1)CN2C=CC3=C2C=C(C=C3)C(=O)NO
# Test: relative viability (nuclei count vs DMSO), 5 days (fraction); higher = more cells survive
# Details: 0.08 µM
# Procedure, shortened: (§2)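 Viability was read as treated-well nuclei divided by vehicle-well nuclei, using the median across plates. Lung cancer cell lines in 1536-well plates were kept overnight at 37 °C, pinned with five √10-spaced library-drug doses, and after 5 days were Hoechst-stained, imaged at 4× and counted in MetaXpress. Plates passed only with control CV below 25% and at least one doubling.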
row,Cell Line,relative viability
1,NCI-H2342,0.946
2,NCI-H1623,0.812
3,NCI-H1975,0.862
4,H3255,0.992
5,NCI-H2023,0.908
6,NCI-H2405,0.908
7,SK-LU-1,0.974
8,NCI-H1437,0.912
9,NCI-H596,0.962
10,NCI-H1648,1
11,SW 900,0.862
12,LCLC-103H,1.03
13,NCI-H441,0.997

# Same assay, conditions: 0.253 µM
row,Cell Line,relative viability
1,NCI-H2342,0.973
2,NCI-H1623,0.975
3,LU99A,0.932
4,NCI-H1975,0.976
5,H3255,0.957
6,NCI-H2023,1.02
7,NCI-H2405,0.934
8,SK-LU-1,0.997
9,NCI-H1734,0.957
10,NCI-H1437,0.978
11,ABC-1,0.941
12,NCI-H596,1.1
13,NCI-H1648,0.875
14,SW 900,0.802
15,NCI-H522,0.946
16,LCLC-103H,1.01
17,ChaGo-K-1,1.04
18,NCI-H441,1.03

# Same assay, conditions: 0.8 µM
row,Cell Line,relative viability
1,NCI-H2342,0.992
2,NCI-H1623,0.999
3,LU99A,1.11
4,NCI-H1975,0.923
5,H3255,0.948
6,NCI-H2023,1.02
7,NCI-H2405,1
8,SK-LU-1,1.02
9,NCI-H1734,1.16
10,NCI-H1437,1.05
11,ABC-1,0.845
12,NCI-H596,1.08
13,NCI-H1648,1.01
14,SW 900,0.934
15,NCI-H522,0.968
16,LCLC-103H,1.01
17,ChaGo-K-1,1.01
18,NCI-H441,1.18

# Same assay, conditions: 2.53 µM
row,Cell Line,relative viability
1,NCI-H2342,0.997
2,NCI-H1623,0.982
3,LU99A,0.916
4,NCI-H1975,0.979
5,H3255,0.968
6,NCI-H2023,0.949
7,NCI-H2405,1.06
8,SK-LU-1,1.04
9,NCI-H1734,1.02
10,NCI-H1437,1.06
11,ABC-1,0.94
12,NCI-H596,0.989
13,NCI-H1648,0.991
14,SW 900,0.941
15,NCI-H522,0.869
16,LCLC-103H,0.984
17,ChaGo-K-1,1
18,NCI-H441,1.04

# Same assay, conditions: 8 µM
row,Cell Line,relative viability
1,NCI-H2342,0.827
2,NCI-H1623,0.897
3,LU99A,0.932
4,NCI-H1975,0.872
5,H3255,0.842
6,NCI-H2023,0.87
7,NCI-H2405,0.913
8,SK-LU-1,0.966
9,NCI-H1734,0.73
10,NCI-H1437,1.05
11,ABC-1,0.703
12,NCI-H596,0.947
13,NCI-H1648,0.735
14,SW 900,0.732
15,NCI-H522,0.793
16,LCLC-103H,0.973
17,ChaGo-K-1,0.834
18,NCI-H441,0.867

# Compound: C[C@]1(c2nc3c(C(N)=O)cccc3[nH]2)CCCN1 [Veliparib]
# Test: as above
# Details: 0.02 µM
# Procedure, shortened: as §2
row,Cell Line,relative viability
1,NCI-H2342,0.966
2,NCI-H1623,0.762
3,LU99A,0.984
4,NCI-H1975,1.03
5,H3255,0.919
6,NCI-H2023,0.853
7,NCI-H2405,0.973
8,SK-LU-1,1.04
9,NCI-H1734,0.82
10,NCI-H1437,0.815
11,NCI-H596,0.932
12,NCI-H1648,1.08
13,NCI-H522,0.947
14,LCLC-103H,1
15,ChaGo-K-1,0.842
16,NCI-H441,1.09

# Same assay, conditions: 0.06325 µM
row,Cell Line,relative viability
1,NCI-H2342,0.968
2,NCI-H1623,0.883
3,LU99A,0.902
4,NCI-H1975,0.876
5,H3255,0.92
6,NCI-H2023,0.939
7,NCI-H2405,0.89
8,SK-LU-1,1.06
9,NCI-H1734,0.857
10,NCI-H1437,0.958
11,ABC-1,0.842
12,NCI-H596,0.933
13,NCI-H1648,0.94
14,SW 900,0.645
15,NCI-H522,0.958
16,LCLC-103H,0.893
17,ChaGo-K-1,0.978
18,NCI-H441,0.967

# Same assay, conditions: 0.2 µM
row,Cell Line,relative viability
1,NCI-H2342,0.94
2,NCI-H1623,0.959
3,LU99A,0.771
4,NCI-H1975,0.903
5,H3255,0.962
6,NCI-H2023,0.919
7,NCI-H2405,1.01
8,SK-LU-1,1.06
9,NCI-H1734,0.957
10,NCI-H1437,0.971
11,ABC-1,0.925
12,NCI-H596,0.966
13,NCI-H1648,0.738
14,SW 900,0.909
15,NCI-H522,0.912
16,LCLC-103H,0.999
17,ChaGo-K-1,0.966
18,NCI-H441,0.982

# Same assay, conditions: 0.6325 µM
row,Cell Line,relative viability
1,NCI-H2342,0.873
2,NCI-H1623,1.01
3,LU99A,0.863
4,NCI-H1975,0.884
5,H3255,0.951
6,NCI-H2023,0.85
7,NCI-H2405,1
8,SK-LU-1,0.98
9,NCI-H1734,0.858
10,NCI-H1437,0.972
11,ABC-1,0.841
12,NCI-H596,0.93
13,NCI-H1648,0.944
14,SW 900,0.807
15,NCI-H522,1.07
16,LCLC-103H,1.01
17,ChaGo-K-1,0.965
18,NCI-H441,0.772

# Same assay, conditions: 2 µM
row,Cell Line,relative viability
1,NCI-H2342,0.979
2,NCI-H1623,0.984
3,LU99A,0.994
4,NCI-H1975,0.861
5,H3255,0.992
6,NCI-H2023,0.928
7,NCI-H2405,0.691
8,SK-LU-1,1.01
9,NCI-H1734,0.997
10,NCI-H1437,0.963
11,ABC-1,0.958
12,NCI-H596,0.908
13,NCI-H1648,0.81
14,SW 900,0.777
15,NCI-H522,1.04
16,LCLC-103H,0.969
17,ChaGo-K-1,0.775
18,NCI-H441,0.884
